The values that follow come from patent US12331054B2, “Perk inhibiting imidazolopyrazine compounds” (HiberCell, Inc., priority 2019, dated 2025).

Broadly, the IC50 is the concentration that inhibits the measured activity by half.

Structures are written as SMILES.

The test system of test [1] is eIF2α in HEK293-EGFP-eIF2α cells. Kind of test: PERK Cellular Assay (HEK293-EGFP-eIF2α cells, tunicamycin-induced ER stress, TR-FRET). It is filed as cell-based. The following applies: tunicamycin 2 hours. In a few lines:
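Cells pre-incubated with inhibitor 30 min at 37 °C, then ER stress induced with […] tunicamycin for 2 h. TR-FRET read on lysates; ratio normalized to DMSO control as percent inhibition over a 10-point, 3-fold dilution series; IC50 from 4-parameter logistic fit.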
A general note: In TR-FRET formats the signal depends on donor and acceptor labels being close together.

Test [2] deals with Recombinant human EIF2AK3 (PERK) catalytic domain (amino acids 536-1116) (Homo sapiens (Human), UniProt Q9NZJ5). Kind of test: PERK In Vitro Activity Assay (isolated), TR-FRET kinase assay. The following applies: isolated PERK enzyme, 1.5 μM ATP, read-out: Biochemical IC50. In a few lines:
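Recombinant PERK catalytic domain was incubated with 100–200 nM GFP-eIF2a substrate in 50 mM HEPES pH 7.5, 10 mM MgCl2, 1.0 mM EGTA and 0.01% Brij-35 for 45 min at room temperature. After a 10 mM EDTA stop, 2 nM Tb-anti-phospho-eIF2a was added for 90 min, and IC50 was fitted from TR-FRET ratios by 4-parameter logistic regression.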

Recombinant human EIF2AK3 (PERK) catalytic domain (amino acids 536-1116), sequence (Q9NZJ5 536-1116): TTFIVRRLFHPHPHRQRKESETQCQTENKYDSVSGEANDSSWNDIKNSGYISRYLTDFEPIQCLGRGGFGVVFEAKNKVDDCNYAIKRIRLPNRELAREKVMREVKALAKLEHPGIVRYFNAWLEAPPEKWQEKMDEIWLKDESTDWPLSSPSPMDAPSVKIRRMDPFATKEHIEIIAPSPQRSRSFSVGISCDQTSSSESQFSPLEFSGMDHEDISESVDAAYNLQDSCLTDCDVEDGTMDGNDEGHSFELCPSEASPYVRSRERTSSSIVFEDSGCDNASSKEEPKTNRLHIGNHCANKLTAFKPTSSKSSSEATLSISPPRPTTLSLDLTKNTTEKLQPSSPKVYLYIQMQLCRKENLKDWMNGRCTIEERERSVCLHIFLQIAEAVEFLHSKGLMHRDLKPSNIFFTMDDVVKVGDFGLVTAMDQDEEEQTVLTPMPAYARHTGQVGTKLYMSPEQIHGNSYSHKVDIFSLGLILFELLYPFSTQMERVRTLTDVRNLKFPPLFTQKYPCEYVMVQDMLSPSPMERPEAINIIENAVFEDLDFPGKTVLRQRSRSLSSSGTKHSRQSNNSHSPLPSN

For the compound `Cc1cc(NC(=O)C(O)c2cccc(F)c2)ccc1-c1nc(C)n2c(C)cnc(N)c12` (stereo not shown) [Example 8, N-(4-(8-amino-3,5-dimethylimidazo[1,5-a]pyrazin-1-yl)-3-methylphenyl)-2-(3-fluorophenyl)-2-hydroxyacetamide], the IC50 lay within 0.026 to 0.05 µM in test [1] and 0.001 to 0.025 µM in test [2].

Consider `[2H]C([2H])([2H])c1nc(-c2ccc(NC(=O)C(O)c3cccc(Cl)c3)cc2C)c2c(N)ncc(Cl)n12` (stereo not shown) [Example 42, N-[4-[8-amino-5-chloro-3-(trideuteriomethyl)imidazo[1,5-a]pyrazin-1-yl]-3-methyl-phenyl]-2-(3-chlorophenyl)-2-hydroxy-acetamide], for which the concentration for half-maximal inhibition (IC50) in test [1] and in test [2] was 0.001 to 0.025 µM each time.

As to `[2H]C([2H])([2H])c1nc(-c2ccc(NC(=O)C(O)c3cccc(F)c3)cc2C)c2c(N)ncc(Cl)n12` (stereo not shown) [Example 33, N-[4-[8-amino-5-chloro-3-(trideuteriomethyl)imidazo[1,5-a]pyrazin-1-yl]-3-methyl-phenyl]-2-(3-fluorophenyl)-2-hydroxy-acetamide], the figures for the half-maximal inhibitory concentration (IC50) in test [1] and in test [2] were 0.051 to 0.1 µM and 0.001 to 0.025 µM, respectively.

For `[2H]C([2H])([2H])c1nc(-c2ccc(NC(=O)C(O)c3cccc(F)c3)cc2F)c2c(N)ncc(Cl)n12` (stereo not shown) [Example 74, N-[4-[8-amino-5-chloro-3-(trideuteriomethyl)imidazo[1,5-a]pyrazin-1-yl]-3-fluoro-phenyl]-2-(3-fluorophenyl)-2-hydroxy-acetamide], the IC50 in test [1] and in test [2] was 0.001 to 0.025 µM in each case.

As for `[2H]C([2H])([2H])c1nc(-c2ccc(NC(=O)C(O)c3cc(F)cc(C(F)(F)F)c3)c(F)c2F)c2c(N)ncc(Cl)n12` (stereo not shown) [Example 164, N-[4-[8-amino-5-chloro-3-(trideuteriomethyl)imidazo[1,5-a]pyrazin-1-yl]-2,3-difluoro-phenyl]-2-[3-fluoro-5-(trifluoromethyl)phenyl]-2-hydroxy-acetamide], the IC50 in test [1] and in test [2] was 0.001 to 0.025 µM in each case.

As for `[2H]C([2H])([2H])c1nc(-c2ccc(NC(=O)C(O)c3cc(F)cc(C(F)(F)F)c3)c(F)c2F)c2c(N)nc(C)cn12` (stereo not shown) [Example 167, N-[4-[8-amino-6-methyl-3-(trideuteriomethyl)imidazo[1,5-a]pyrazin-1-yl]-2,3-difluoro-phenyl]-2-[3-fluoro-5-(trifluoromethyl)phenyl]-2-hydroxy-acetamide], the IC50 in test [1] lay within 0.101 to 0.25 µM; in test [2] it was 0.026 to 0.05 µM.

For `[2H]C([2H])([2H])c1nc(-c2ccc(NC(=O)C(O)c3cccc(F)c3)cc2F)c2c(N)ncc(Cl)n12` (stereo not shown) [Example 75, N-[4-[8-amino-5-chloro-3-(trideuteriomethyl)imidazo[1,5-a]pyrazin-1-yl]-3-fluoro-phenyl]-2-(3-fluorophenyl)-2-hydroxy-acetamide], the half-maximal inhibitory concentration (IC50) in test [1] was 0.026 to 0.05 µM; in test [2], 0.001 to 0.025 µM.

In the case of `[2H]C([2H])([2H])c1nc(-c2ccc(NC(=O)C(O)c3cc(F)cc(F)c3)cc2C)c2c(N)nc(C)cn12` (stereo not shown) [Example 45, N-[4-[8-amino-6-methyl-3-(trideuteriomethyl)imidazo[1,5-a]pyrazin-1-yl]-3-methyl-phenyl]-2-(3,5-difluoro-phenyl)-2-hydroxy-acetamide], the IC50 lay within 1 to 2 µM in test [1] and 0.051 to 0.1 µM in test [2].

For `[2H]C([2H])([2H])c1nc(-c2ccc(NC(=O)C(O)c3cc(F)cc(C(F)(F)F)c3)c(F)c2F)c2c(N)ncc(Cl)n12` (stereo not shown) [Example 165, N-[4-[8-amino-5-chloro-3-(trideuteriomethyl)imidazo[1,5-a]pyrazin-1-yl]-2,3-difluoro-phenyl]-2-[3-fluoro-5-(trifluoromethyl)phenyl]-2-hydroxy-acetamide], the values for the half-maximal inhibitory concentration (IC50) in test [1] and in test [2] were 0.101 to 0.25 µM and 0.026 to 0.05 µM, respectively.

For `[2H]C([2H])([2H])c1nc(-c2ccc(NC(=O)C(O)c3cccc(F)c3)c(F)c2F)c2c(N)nc(C)cn12` (stereo not shown) [Example 131, N-[4-[8-amino-6-methyl-3-(trideuteriomethyl)imidazo[1,5-a]pyrazin-1-yl]-2,3-difluoro-phenyl]-2-(3-fluoro-phenyl)-2-hydroxy-acetamide], the concentration for half-maximal inhibition (IC50) in test [1] lay within 3 to 4 µM; in test [2], 0.501 to 1 µM.

With `[2H]C([2H])([2H])c1nc(-c2ccc(NC(=O)C(O)c3cccc(Cl)c3)cc2C)c2c(N)ncc(C)n12` (stereo not shown) [Example 37, N-[4-[8-amino-5-methyl-3-(trideuteriomethyl)imidazo[1,5-a]pyrazin-1-yl]-3-methyl-phenyl]-2-(3-chlorophenyl)-2-hydroxy-acetamide], the IC50 in test [1] lay in the range of 0.051 to 0.1 µM; in test [2], 0.001 to 0.025 µM.

Take `CCc1cc(NC(=O)C(O)c2cccc(F)c2)ccc1-c1nc(C)n2c(C)cnc(N)c12` (stereo not shown) [Example 67, N-(4-(8-amino-3,5-dimethylimidazo [1,5-a]pyrazin-1-yl)-3-ethylphenyl)-2-(3-fluorophenyl)-2-hydroxy-acetamide]: the concentration for half-maximal inhibition (IC50) was in the range of 0.101 to 0.25 µM in test [1] and 0.001 to 0.025 µM in test [2].

On to `[2H]C([2H])([2H])c1nc(-c2ccc(NC(=O)C(O)c3cccc(C(F)(F)F)c3)cc2F)c2c(N)ncc(C)n12` (stereo not shown) [Example 94, N-[4-[8-amino-5-methyl-3-(trideuteriomethyl)imidazo[1,5-a]pyrazin-1-yl]-3-fluoro-phenyl]-2-hydroxy-2-[3-(trifluoromethyl)phenyl]acetamide], for which the IC50 in test [1] and in test [2] was 0.001 to 0.025 µM throughout.

As for `Cc1cc(NC(=O)C(O)c2cccc(F)c2)ccc1-c1nc(C)n2ccnc(N)c12` (stereo not shown) [Example 2, N-(4-(8-amino-3-methylimidazo[1,5-a]pyrazin-1-yl)-3-methylphenyl)-2-(3-fluorophenyl)-2-hydroxyacetamide], the results for the concentration for half-maximal inhibition (IC50) in test [1] and in test [2] were 0.251 to 0.5 µM and 0.026 to 0.05 µM, respectively.

As to `[2H]C([2H])([2H])c1nc(-c2ccc(NC(=O)C(O)c3cccc(Cl)c3)c(F)c2F)c2c(N)ncc(Cl)n12` (stereo not shown) [Example 144, N-[4-[8-amino-5-chloro-3-(trideuteriomethyl)imidazo[1,5-a]pyrazin-1-yl]-2,3-difluoro-phenyl]-2-(3-chlorophenyl)-2-hydroxy-acetamide], the half-maximal inhibitory concentration (IC50) was in the range of 0.051 to 0.1 µM in test [1] and 0.001 to 0.025 µM in test [2].

With `Cc1cc(NC(=O)C(O)c2cc(F)cc(C(F)(F)F)c2)ccc1-c1nc(C)n2c(C)cnc(N)c12` (stereo not shown) [Example 58, N-(4-(8-amino-3,5-dimethylimidazo [1,5-a]pyrazin-1-yl)-3-methylphenyl)-2-(3-fluoro-5-(trifluoromethyl)phenyl)-2-hydroxyacetamide], the results for the IC50 in test [1] and in test [2] were 0.026 to 0.05 µM and 0.001 to 0.025 µM, respectively.

For `[2H]C([2H])([2H])c1nc(-c2ccc(NC(=O)C(O)c3cccc(Cl)c3)cc2F)c2c(N)ncc(C(F)(F)F)n12` (stereo not shown) [Example 83, N-[4-[8-amino-3-(trideuteriomethyl)-5-(trifluoromethyl)imidazo[1,5-a]pyrazin-1-yl]-3-fluoro-phenyl]-2-(3-chlorophenyl)-2-hydroxy-acetamide], the figures for the concentration for half-maximal inhibition (IC50) in test [1] and in test [2] were 0.051 to 0.1 µM and 0.001 to 0.025 µM, respectively.

As to `[2H]C([2H])([2H])c1nc(-c2ccc(NC(=O)C(O)c3cccc(F)c3)nc2C)c2c(N)nc(C)cn12` (stereo not shown) [Example 170, N-[5-[8-amino-6-methyl-3-(trideuteriomethyl)imidazo[1,5-a]pyrazin-1-yl]-6-methyl-2-pyridyl]-2-(3-fluorophenyl)-2-hydroxy-acetamide], the results for the half-inhibitory concentration (IC50) in test [1] and in test [2] were 0.101 to 0.25 µM and 0.001 to 0.025 µM, respectively.

Turning to `[2H]C([2H])([2H])c1nc(-c2ccc(NC(=O)C(O)c3cccc(C(F)(F)F)c3)cc2F)c2c(N)nc(C)cn12` (stereo not shown) [Example 96, N-[4-[8-amino-6-methyl-3-(trideuteriomethyl)imidazo[1,5-a]pyrazin-1-yl]-3-fluoro-phenyl]-2-hydroxy-2-[3-(trifluoromethyl)phenyl]acetamide], the 50% inhibitory concentration (IC50) in test [1] and in test [2] was 0.001 to 0.025 µM each time.

With `[2H]C([2H])([2H])c1nc(-c2cnc(NC(=O)C(O)c3cccc(C(F)(F)F)c3)cc2C)c2c(N)nc(C)cn12` (stereo not shown) [Example 182, N-[5-[8-amino-6-methyl-3-(trideuteriomethyl)imidazo[1,5-a]pyrazin-1-yl]-4-methyl-2-pyridyl]-2-hydroxy-2-[3-(trifluoromethyl)phenyl]acetamide], the IC50 in test [1] lay within 0.101 to 0.25 µM; in test [2], 0.001 to 0.025 µM.

On to `Cc1cn2c(C)nc(-c3ccc(NC(=O)C(O)c4cccc(F)c4)c(F)c3F)c2c(N)n1` (stereo not shown) [Example 129, N-(4-(8-amino-3,6-dimethyl-imidazo[1,5-a]pyrazin-1-yl)-2,3-difluoro-phenyl)-2-(3-fluorophenyl)-2-hydroxyacetamide], for which the half-maximal inhibitory concentration (IC50) in test [1] is greater than 5 µM; in test [2], 0.501 to 1 µM.

Regarding `[2H]C([2H])([2H])c1nc(-c2ccc(NC(=O)C(O)c3cc(F)cc(C(F)(F)F)c3)cc2F)c2c(N)nc(C)cn12` (stereo not shown) [Example 117, N-[4-[8-amino-6-methyl-3-(trideuteriomethyl)imidazo[1,5-a]pyrazin-1-yl]-3-fluoro-phenyl]-2-[3-fluoro-5-(trifluoromethyl)phenyl]-2-hydroxy-acetamide], the IC50 was in the range of 0.251 to 0.5 µM in test [1] and 0.051 to 0.1 µM in test [2].

Turning to `[2H]C([2H])([2H])c1nc(-c2ccc(NC(=O)C(O)c3cc(F)cc(C(F)(F)F)c3)cc2F)c2c(N)ncc(C)n12` (stereo not shown) [Example 111, N-[4-[8-amino-5-methyl-3-(trideuteriomethyl)imidazo[1,5-a]pyrazin-1-yl]-3-fluoro-phenyl]-2-[3-fluoro-5-(trifluoromethyl)phenyl]-2-hydroxy-acetamide], the values for the IC50 in test [1] and in test [2] were 0.026 to 0.05 µM and 0.001 to 0.025 µM, respectively.
